# Experimental data from the supplement of paper PMC10307832.
# Compound: CC[C@@H]1C(=O)N(C)c2cnc(Nc3ccc(C(=O)NC4CCN(C)CC4)cc3OC)nc2N1C1CCCC1 [BI-2536] + CS(=O)(=O)CCNCc1ccc(-c2ccc3ncnc(Nc4ccc(OCc5cccc(F)c5)c(Cl)c4)c3c2)o1 [Lapatinib] (partner 2 µM)
# Test: relative viability (nuclei count vs DMSO), 5 days (fraction); higher = more cells survive
# Details: first compound 0.01 µM
# Procedure, shortened: (§1)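 Cells from lung cancer lines were seeded into 1536-well plates and, one day later, dosed by pin tool. Treatments were either a single drug or a fixed dose of an anchor drug with five library-drug doses (not always all listed) in √10 steps. After 5 days, nuclei were stained in a one-step fixation (final 0.05% Triton X-100, 1% formaldehyde, 1 ug/ml Hoechst) and counted on 4× images, and relative viability is the treated-to-vehicle nuclei ratio, as the median of duplicate plates.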
row,Cell Line,relative viability
1,NCI-H727,0.972
2,NCI-H1650,0.775
3,EBC-1,0.21
4,NCI-H1703,0.956
5,NCI-H1993,0.81
6,SW 1573,1.1
7,NCI-H838,1.04
8,NCI-H520,0.686
9,NCI-H2126,0.782
10,EMC-BAC-2,0.881

# Same assay, conditions: first compound 0.03162 µM
row,Cell Line,relative viability
1,NCI-H727,0.853
2,NCI-H1650,0.649
3,EBC-1,0.194
4,NCI-H1993,0.828
5,SW 1573,1.2
6,NCI-H838,0.877
7,NCI-H520,0.471
8,NCI-H2126,0.689
9,EMC-BAC-2,0.837

# Same assay, conditions: first compound 0.1 µM
row,Cell Line,relative viability
1,NCI-H727,0.512
2,NCI-H1650,0.176
3,EBC-1,0.203
4,NCI-H1703,0.323
5,NCI-H1993,0.533
6,SW 1573,1.12
7,NCI-H838,0.155
8,NCI-H520,0.154
9,NCI-H2126,0.725
10,EMC-BAC-2,0.767

# Same assay, conditions: first compound 0.3162 µM
row,Cell Line,relative viability
1,NCI-H727,0.268
2,NCI-H1650,0.151
3,EBC-1,0.174
4,NCI-H1703,0.174
5,NCI-H1993,0.566
6,SW 1573,0.186
7,NCI-H838,0.101
8,NCI-H520,0.193
9,NCI-H2126,0.619
10,EMC-BAC-2,0.182

# Same assay, conditions: first compound 1 µM
row,Cell Line,relative viability
1,NCI-H727,0.242
2,NCI-H1650,0.124
3,EBC-1,0.155
4,NCI-H1703,0.113
5,NCI-H1993,0.555
6,SW 1573,0.18
7,NCI-H838,0.133
8,NCI-H520,0.164
9,NCI-H2126,0.267
10,EMC-BAC-2,0.154

# Compound: CC1CC(=O)N(C2=CN=C(N=C2N1C3CCCC3)NC4=C(C=C(C=C4)C(=O)NC5CCN(CC5)C)OC)C [NPK76-II-72-1] + CS(=O)(=O)N1CCN(Cc2cc3nc(-c4cccc5[nH]ncc45)nc(N4CCOCC4)c3s2)CC1 [Pictilisib] (partner 1 µM)
# Test: as above
# Details: first compound 0.01 µM
# Procedure, shortened: as §1
row,Cell Line,relative viability
1,NCI-H727,0.396
2,NCI-H1650,0.569
3,EBC-1,0.404
4,NCI-H1703,0.257
5,NCI-H1993,0.811
6,SW 1573,0.425
7,NCI-H838,0.37
8,LCLC-103H,0.692
9,NCI-H520,0.234
10,NCI-H2126,0.508
11,EMC-BAC-2,0.488
12,ChaGo-K-1,0.736
13,NCI-H441,0.419

# Same assay, conditions: first compound 0.03162 µM
row,Cell Line,relative viability
1,NCI-H727,0.428
2,NCI-H1650,0.534
3,EBC-1,0.432
4,NCI-H1703,0.224
5,NCI-H1993,0.804
6,SW 1573,0.497
7,NCI-H838,0.481
8,LCLC-103H,0.761
9,NCI-H520,0.267
10,NCI-H2126,0.517
11,EMC-BAC-2,0.6
12,ChaGo-K-1,0.642
13,NCI-H441,0.507

# Same assay, conditions: first compound 0.1 µM
row,Cell Line,relative viability
1,NCI-H727,0.385
2,NCI-H1650,0.596
3,EBC-1,0.536
4,NCI-H1703,0.298
5,NCI-H1993,0.779
6,SW 1573,0.498
7,NCI-H838,0.47
8,LCLC-103H,0.671
9,NCI-H520,0.374
10,NCI-H2126,0.457
11,EMC-BAC-2,0.558
12,ChaGo-K-1,0.685
13,NCI-H441,0.605

# Same assay, conditions: first compound 0.3162 µM
row,Cell Line,relative viability
1,NCI-H727,0.418
2,NCI-H1650,0.547
3,EBC-1,0.347
4,NCI-H1703,0.283
5,NCI-H1993,0.88
6,SW 1573,0.455
7,NCI-H838,0.435
8,LCLC-103H,0.609
9,NCI-H520,0.267
10,NCI-H2126,0.507
11,EMC-BAC-2,0.566
12,ChaGo-K-1,0.686
13,NCI-H441,0.471

# Same assay, conditions: first compound 1 µM
row,Cell Line,relative viability
1,NCI-H727,0.319
2,NCI-H1650,0.649
3,EBC-1,0.456
4,NCI-H1703,0.254
5,NCI-H1993,0.759
6,SW 1573,0.463
7,NCI-H838,0.432
8,LCLC-103H,0.679
9,NCI-H520,0.291
10,NCI-H2126,0.476
11,EMC-BAC-2,0.544
12,ChaGo-K-1,0.367
13,NCI-H441,0.425

# Compound: CC1CC(=O)N(C2=CN=C(N=C2N1C3CCCC3)NC4=C(C=C(C=C4)C(=O)NC5CCN(CC5)C)OC)C [NPK76-II-72-1]
# Test: relative viability (nuclei count vs DMSO), 5 days (fraction); higher = more cells survive
# Details: 0.01 µM
# Procedure, shortened: (§2)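 On vehicle-anchored 1536-well plates, lung cancer cell lines held overnight at 37 °C were pinned with five library-drug doses (not always all listed) spaced by √10. With no medium change over 5 days, they were then fixed, permeabilised and Hoechst-stained in one step and imaged at 4×. MetaXpress counted nuclei, and viability is the median across plates of treated-well over vehicle-well nuclei. Acceptance needed control CV below 25% and at least one doubling.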
row,Cell Line,relative viability
1,NCI-H522,0.922
2,NCI-H1623,0.919
3,NCI-H727,0.882
4,NCI-H1650,0.86
5,EBC-1,0.917
6,NCI-H1703,0.842
7,NCI-H1993,0.827
8,SW 1573,0.902
9,NCI-H838,0.912
10,LCLC-103H,0.984
11,NCI-H520,0.869
12,NCI-H2126,0.966
13,EMC-BAC-2,0.916
14,NCI-H2342,1.02
15,ChaGo-K-1,0.985
16,SW 900,0.786
17,NCI-H1648,0.861
18,NCI-H441,1.04

# Same assay, conditions: 0.03162 µM
row,Cell Line,relative viability
1,NCI-H522,0.821
2,NCI-H1623,0.953
3,NCI-H727,1.03
4,NCI-H1650,0.993
5,EBC-1,1.02
6,NCI-H1703,1.07
7,NCI-H1993,0.981
8,SW 1573,1
9,NCI-H838,1.03
10,LCLC-103H,1.01
11,NCI-H520,1.03
12,NCI-H2126,1.06
13,EMC-BAC-2,0.96
14,NCI-H2342,1.08
15,ChaGo-K-1,0.951
16,SW 900,0.757
17,NCI-H1648,0.943
18,NCI-H441,1.12

# Same assay, conditions: 0.1 µM
row,Cell Line,relative viability
1,NCI-H522,0.892
2,NCI-H1623,0.901
3,NCI-H727,0.836
4,NCI-H1650,0.929
5,EBC-1,0.94
6,NCI-H1703,0.935
7,NCI-H1993,0.942
8,SW 1573,0.988
9,NCI-H838,0.954
10,LCLC-103H,0.896
11,NCI-H520,0.991
12,NCI-H2126,0.999
13,EMC-BAC-2,0.981
14,NCI-H2342,0.954
15,ChaGo-K-1,1.04
16,SW 900,0.796
17,NCI-H1648,0.537
18,NCI-H441,1.03

# Same assay, conditions: 0.3162 µM
row,Cell Line,relative viability
1,NCI-H522,0.929
2,NCI-H1623,0.852
3,NCI-H727,1.02
4,NCI-H1650,0.891
5,EBC-1,0.984
6,NCI-H1703,0.979
7,NCI-H1993,0.89
8,SW 1573,0.956
9,NCI-H838,0.959
10,LCLC-103H,1.05
11,NCI-H520,1.03
12,NCI-H2126,0.996
13,EMC-BAC-2,0.921
14,NCI-H2342,0.823
15,ChaGo-K-1,0.941
16,SW 900,0.936
17,NCI-H1648,0.719
18,NCI-H441,0.914

# Same assay, conditions: 1 µM
row,Cell Line,relative viability
1,NCI-H522,1.1
2,NCI-H1623,0.932
3,NCI-H727,0.976
4,NCI-H1650,0.996
5,EBC-1,1.07
6,NCI-H1703,1.27
7,NCI-H1993,1.09
8,SW 1573,0.969
9,NCI-H838,1.02
10,LCLC-103H,0.952
11,NCI-H520,0.947
12,NCI-H2126,1.09
13,EMC-BAC-2,1.05
14,NCI-H2342,1.04
15,ChaGo-K-1,0.921
16,SW 900,0.947
17,NCI-H1648,0.773
18,NCI-H441,1.04

# Compound: CC[C@@H]1C(=O)N(C)c2cnc(Nc3ccc(C(=O)NC4CCN(C)CC4)cc3OC)nc2N1C1CCCC1 [BI-2536]
# Test: as above
# Details: 0.01 µM
# Procedure, shortened: as §2
row,Cell Line,relative viability
1,NCI-H522,0.862
2,NCI-H1623,0.956
3,NCI-H727,1.02
4,NCI-H1650,0.889
5,EBC-1,1.04
6,NCI-H1703,0.896
7,NCI-H1993,1.04
8,SW 1573,1.05
9,NCI-H838,0.99
10,LCLC-103H,0.997
11,NCI-H520,0.902
12,NCI-H2126,1.02
13,EMC-BAC-2,0.979
14,NCI-H2342,0.818
15,ChaGo-K-1,0.911
16,SW 900,0.883
17,NCI-H1648,0.98
18,NCI-H441,0.874

# Same assay, conditions: 0.03162 µM
row,Cell Line,relative viability
1,NCI-H522,0.969
2,NCI-H1623,0.91
3,NCI-H727,0.998
4,NCI-H1650,0.801
5,EBC-1,0.804
6,NCI-H1703,0.614
7,NCI-H1993,0.793
8,SW 1573,0.921
9,NCI-H838,0.946
10,LCLC-103H,1.05
11,NCI-H520,0.737
12,NCI-H2126,0.991
13,EMC-BAC-2,1.03
14,NCI-H2342,0.909
15,ChaGo-K-1,0.965
16,SW 900,0.937
17,NCI-H1648,0.826
18,NCI-H441,0.503

# Same assay, conditions: 0.1 µM
row,Cell Line,relative viability
1,NCI-H522,0.639
2,NCI-H1623,0.852
3,NCI-H727,0.764
4,NCI-H1650,0.219
5,EBC-1,0.432
6,NCI-H1703,0.525
7,NCI-H1993,0.543
8,SW 1573,0.487
9,NCI-H838,0.826
10,LCLC-103H,0.961
11,NCI-H520,0.61
12,NCI-H2126,0.656
13,EMC-BAC-2,0.505
14,NCI-H2342,0.865
15,ChaGo-K-1,0.674
16,SW 900,0.696
17,NCI-H1648,0.63
18,NCI-H441,0.281

# Same assay, conditions: 0.3162 µM
row,Cell Line,relative viability
1,NCI-H522,0.374
2,NCI-H1623,0.462
3,NCI-H727,0.512
4,NCI-H1650,0.14
5,EBC-1,0.224
6,NCI-H1703,0.158
7,NCI-H1993,0.684
8,SW 1573,0.131
9,NCI-H838,0.164
10,LCLC-103H,0.491
11,NCI-H520,0.238
12,NCI-H2126,0.314
13,EMC-BAC-2,0.238
14,NCI-H2342,0.418
15,ChaGo-K-1,0.239
16,SW 900,0.244
17,NCI-H1648,0.301
18,NCI-H441,0.191

# Same assay, conditions: 1 µM
row,Cell Line,relative viability
1,NCI-H522,0.332
2,NCI-H1623,0.28
3,NCI-H727,0.31
4,NCI-H1650,0.143
5,EBC-1,0.202
6,NCI-H1703,0.131
7,NCI-H1993,0.587
8,SW 1573,0.134
9,NCI-H838,0.162
10,LCLC-103H,0.197
11,NCI-H520,0.225
12,NCI-H2126,0.245
13,EMC-BAC-2,0.246
14,NCI-H2342,0.393
15,ChaGo-K-1,0.197
16,SW 900,0.205
17,NCI-H1648,0.267
18,NCI-H441,0.224
